Test results published in PubChem BioAssay (NCI).
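Results reflect a 48-hour exposure of cells in 96-well plates to compound at five concentrations. TGI is the concentration that stops growth completely.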

What was measured:
Experiment in all cases: NCI tumour cell line growth inhibition, 48 h
[1] = tested on: 786-0 renal
[2] = tested on: A498 renal
[3] = tested on: A549 NSCLC
[4] = tested on: ACHN renal
[5] = tested on: BT-549 breast
[6] = tested on: CAKI-1 renal
[7] = tested on: CCRF-CEM leukemia
[8] = tested on: COLO 205 colon
[9] = tested on: DLD-1 colon
[10] = tested on: DMS 114 small cell lung
[11] = tested on: DMS 273 small cell lung
[12] = tested on: DU-145 prostate
[13] = tested on: EKVX NSCLC
[14] = tested on: HCC-2998 colon
[15] = tested on: HCT-116 colon
[16] = tested on: HCT-15 colon
[17] = tested on: HL-60(TB) leukemia
[18] = tested on: HOP-18 NSCLC
[19] = tested on: HOP-62 NSCLC
[20] = tested on: HOP-92 NSCLC
[21] = tested on: HS 578T breast
[22] = tested on: HT29 colon
[23] = tested on: IGROV1 ovarian
[24] = tested on: K-562 leukemia
[25] = tested on: KM12 colon
[26] = tested on: KM20L2 colon
[27] = tested on: LOX IMVI melanoma
[28] = tested on: LXFL 529 NSCLC
[29] = tested on: M14 melanoma
[30] = tested on: M19-MEL melanoma
[31] = tested on: MALME-3M melanoma
[32] = tested on: MCF7 breast
[33] = tested on: MDA-MB-231 breast
[34] = tested on: MDA-MB-435
[35] = tested on: MDA-N
[36] = tested on: MOLT-4 leukemia
[37] = tested on: NCI-H226 lung
[38] = tested on: NCI-H23 lung
[39] = tested on: NCI-H460 lung
[40] = tested on: NCI-H522 lung
[41] = tested on: NCI/ADR-RES ovarian
[42] = tested on: OVCAR-3 ovarian
[43] = tested on: OVCAR-4 ovarian
[44] = tested on: OVCAR-5 ovarian
[45] = tested on: OVCAR-8 ovarian
[46] = tested on: PC-3 prostate
[47] = tested on: RPMI-8226 leukemia
[48] = tested on: RXF 393 renal
[49] = tested on: SF-268 CNS
[50] = tested on: SF-295 CNS
[51] = tested on: SF-539 CNS
[52] = tested on: SK-MEL-2 melanoma
[53] = tested on: SK-MEL-28 melanoma
[54] = tested on: SK-MEL-5 melanoma
[55] = tested on: SK-OV-3 ovarian
[56] = tested on: SN12C renal
[57] = tested on: SNB-19 CNS
[58] = tested on: SNB-75 CNS
[59] = tested on: SNB-78 CNS
[60] = tested on: SR leukemia
[61] = tested on: SW-620 colon
[62] = tested on: T-47D breast
[63] = tested on: TK-10 renal
[64] = tested on: U251 CNS
[65] = tested on: UACC-257 melanoma
[66] = tested on: UACC-62 melanoma
[67] = tested on: UO-31 renal
[68] = tested on: XF 498 CNS

Question: Which TGI [1] does the source give for `Cc1nc(N)nc(N)c1-c1ccc(Cl)c(Cl)c1` here?
Answer: > 100 µM

Question: What about the TGI [2] of the same molecule?
Answer: > 80.6 µM

Question: What about the TGI [3] of the same molecule?
Answer: > 100 µM

Question: What about the TGI [4] of the same molecule?
Answer: > 100 µM

Question: And the TGI [5]?
Answer: > 100 µM

Question: And the TGI [6]?
Answer: > 100 µM

Question: What about the TGI [7] of the same molecule?
Answer: > 100 µM

Question: And the TGI [8]?
Answer: > 67.5 µM

Question: And the TGI [9]?
Answer: 55 µM

Question: What about the TGI [10] of the same molecule?
Answer: > 100 µM

Question: And the TGI [11]?
Answer: > 100 µM

Question: What about the TGI [12] of the same molecule?
Answer: > 100 µM

Question: What about the TGI [13] of the same molecule?
Answer: > 100 µM

Question: What about the TGI [14] of the same molecule?
Answer: > 50.6 µM

Question: What about the TGI [15] of the same molecule?
Answer: > 100 µM

Question: And the TGI [16]?
Answer: > 100 µM

Question: And the TGI [17]?
Answer: > 88.1 µM

Question: What about the TGI [18] of the same molecule?
Answer: > 100 µM

Question: What about the TGI [19] of the same molecule?
Answer: > 100 µM

Question: And the TGI [20]?
Answer: 79.7 µM

Question: What about the TGI [21] of the same molecule?
Answer: 58 µM

Question: And the TGI [22]?
Answer: > 100 µM

Question: And the TGI [23]?
Answer: > 100 µM

Question: And the TGI [24]?
Answer: > 100 µM

Question: And the TGI [25]?
Answer: > 100 µM

Question: What about the TGI [26] of the same molecule?
Answer: > 100 µM

Question: And the TGI [27]?
Answer: > 100 µM

Question: And the TGI [28]?
Answer: > 100 µM

Question: What about the TGI [29] of the same molecule?
Answer: > 100 µM

Question: And the TGI [30]?
Answer: > 100 µM

Question: And the TGI [31]?
Answer: > 87.7 µM

Question: What about the TGI [32] of the same molecule?
Answer: > 100 µM

Question: What about the TGI [33] of the same molecule?
Answer: > 100 µM

Question: And the TGI [34]?
Answer: > 100 µM

Question: And the TGI [35]?
Answer: > 100 µM

Question: What about the TGI [36] of the same molecule?
Answer: > 100 µM

Question: And the TGI [37]?
Answer: > 100 µM

Question: What about the TGI [38] of the same molecule?
Answer: > 81 µM

Question: And the TGI [39]?
Answer: > 92.1 µM

Question: What about the TGI [40] of the same molecule?
Answer: 34.8 µM

Question: And the TGI [41]?
Answer: > 100 µM

Question: What about the TGI [42] of the same molecule?
Answer: > 49 µM

Question: And the TGI [43]?
Answer: > 100 µM

Question: What about the TGI [44] of the same molecule?
Answer: > 100 µM

Question: And the TGI [45]?
Answer: > 100 µM

Question: What about the TGI [46] of the same molecule?
Answer: > 100 µM

Question: What about the TGI [47] of the same molecule?
Answer: > 100 µM

Question: And the TGI [48]?
Answer: > 79.9 µM

Question: And the TGI [49]?
Answer: > 100 µM

Question: And the TGI [50]?
Answer: > 100 µM

Question: What about the TGI [51] of the same molecule?
Answer: > 100 µM

Question: And the TGI [52]?
Answer: > 90.6 µM

Question: And the TGI [53]?
Answer: 47.1 µM

Question: And the TGI [54]?
Answer: > 44.7 µM

Question: And the TGI [55]?
Answer: > 100 µM

Question: And the TGI [56]?
Answer: > 100 µM

Question: What about the TGI [57] of the same molecule?
Answer: > 100 µM

Question: And the TGI [58]?
Answer: > 76.4 µM

Question: And the TGI [59]?
Answer: > 100 µM

Question: What about the TGI [60] of the same molecule?
Answer: > 100 µM

Question: And the TGI [61]?
Answer: > 100 µM

Question: What about the TGI [62] of the same molecule?
Answer: > 100 µM

Question: And the TGI [63]?
Answer: > 51.9 µM

Question: And the TGI [64]?
Answer: > 100 µM

Question: What about the TGI [65] of the same molecule?
Answer: > 100 µM

Question: And the TGI [66]?
Answer: > 51.1 µM

Question: What about the TGI [67] of the same molecule?
Answer: > 89.3 µM

Question: What about the TGI [68] of the same molecule?
Answer: > 100 µM

Question: What does the source list for `O=C(CN1CCOCC1)Nc1nc(-c2ccc(Cl)cc2)cs1`?
Answer: TGI [1]: > 100 µM; TGI [2]: > 100 µM; TGI [3]: > 100 µM; TGI [4]: 79.6 µM; TGI [6]: > 100 µM; TGI [7]: 63.9 µM; TGI [8]: 93 µM; TGI [9]: > 100 µM; TGI [10]: 65.8 µM; TGI [11]: 41.8 µM; TGI [13]: > 100 µM; TGI [14]: > 100 µM; TGI [16]: > 100 µM; TGI [17]: 44.9 µM; TGI [18]: > 100 µM; TGI [19]: 73.1 µM; TGI [20]: > 100 µM; TGI [22]: > 100 µM; TGI [23]: > 100 µM; TGI [24]: 94.5 µM; TGI [25]: 48.1 µM; TGI [27]: 58.7 µM; TGI [29]: > 100 µM; TGI [30]: > 100 µM; TGI [31]: 65.2 µM; TGI [36]: 42.6 µM; TGI [37]: 60.9 µM; TGI [38]: 40.1 µM; TGI [39]: > 100 µM; TGI [42]: 76.9 µM; TGI [43]: > 100 µM; TGI [44]: > 100 µM; TGI [45]: 72.2 µM; TGI [47]: 53.7 µM; TGI [49]: > 100 µM; TGI [50]: > 100 µM; TGI [51]: > 100 µM; TGI [52]: 54.5 µM; TGI [53]: 74.8 µM; TGI [55]: > 100 µM; TGI [56]: > 100 µM; TGI [57]: > 100 µM; TGI [58]: 62.6 µM; TGI [59]: > 100 µM; TGI [61]: > 100 µM; TGI [63]: > 100 µM; TGI [64]: > 100 µM; TGI [66]: 53.3 µM; TGI [67]: 67 µM; TGI [68]: 26.9 µM

Question: How did the TGI [1] turn out when `O=C(CSc1nnc(-c2ccc(N=Cc3ccc(Cl)cc3)cc2)o1)Nc1ccc(Cl)cc1Cl` was run?
Answer: 51.8 µM

Question: And the TGI [2]?
Answer: > 100 µM

Question: And the TGI [3]?
Answer: > 100 µM

Question: And the TGI [4]?
Answer: > 100 µM

Question: And the TGI [6]?
Answer: > 100 µM

Question: And the TGI [7]?
Answer: > 100 µM

Question: And the TGI [8]?
Answer: 78 µM

Question: What about the TGI [9] of the same molecule?
Answer: 60.5 µM

Question: And the TGI [11]?
Answer: 88.7 µM

Question: What about the TGI [13] of the same molecule?
Answer: > 100 µM

Question: And the TGI [14]?
Answer: > 100 µM

Question: What about the TGI [15] of the same molecule?
Answer: 38.1 µM

Question: What about the TGI [16] of the same molecule?
Answer: 52.8 µM

Question: What about the TGI [17] of the same molecule?
Answer: > 100 µM

Question: And the TGI [18]?
Answer: 39.8 µM

Question: And the TGI [19]?
Answer: 74.5 µM

Question: And the TGI [20]?
Answer: 50.5 µM

Question: What about the TGI [22] of the same molecule?
Answer: 60.5 µM

Question: And the TGI [23]?
Answer: 58.7 µM

Question: What about the TGI [24] of the same molecule?
Answer: > 100 µM

Question: What about the TGI [25] of the same molecule?
Answer: 72.4 µM

Question: What about the TGI [26] of the same molecule?
Answer: > 100 µM

Question: What about the TGI [28] of the same molecule?
Answer: 96.9 µM

Question: What about the TGI [29] of the same molecule?
Answer: 36.1 µM

Question: And the TGI [30]?
Answer: 88.5 µM

Question: What about the TGI [31] of the same molecule?
Answer: 47.5 µM

Question: And the TGI [36]?
Answer: 66 µM

Question: And the TGI [37]?
Answer: 58.2 µM

Question: What about the TGI [38] of the same molecule?
Answer: 59.3 µM

Question: What about the TGI [39] of the same molecule?
Answer: > 100 µM

Question: And the TGI [40]?
Answer: 85.9 µM

Question: What about the TGI [43] of the same molecule?
Answer: 88 µM

Question: What about the TGI [44] of the same molecule?
Answer: > 100 µM

Question: What about the TGI [45] of the same molecule?
Answer: 83.7 µM

Question: What about the TGI [47] of the same molecule?
Answer: > 100 µM

Question: And the TGI [48]?
Answer: > 100 µM

Question: What about the TGI [49] of the same molecule?
Answer: 64.9 µM

Question: What about the TGI [50] of the same molecule?
Answer: 68.1 µM

Question: What about the TGI [51] of the same molecule?
Answer: 51.1 µM

Question: And the TGI [52]?
Answer: 47.3 µM

Question: What about the TGI [53] of the same molecule?
Answer: 74.6 µM

Question: And the TGI [54]?
Answer: 63.2 µM

Question: What about the TGI [55] of the same molecule?
Answer: 76.7 µM

Question: And the TGI [56]?
Answer: 49 µM

Question: What about the TGI [57] of the same molecule?
Answer: 85 µM

Question: What about the TGI [58] of the same molecule?
Answer: 72.7 µM

Question: And the TGI [59]?
Answer: > 100 µM

Question: What about the TGI [61] of the same molecule?
Answer: > 100 µM

Question: What about the TGI [63] of the same molecule?
Answer: > 100 µM

Question: And the TGI [64]?
Answer: 69.9 µM

Question: And the TGI [65]?
Answer: 71.1 µM

Question: And the TGI [66]?
Answer: 60.3 µM

Question: What about the TGI [67] of the same molecule?
Answer: 98.7 µM

Question: What about the TGI [68] of the same molecule?
Answer: 47.9 µM
